Experimental data taken from patent US20250326744A1, “PIPERAZINE DERIVATIVE OR SALT THEREOF, AND PHARMACEUTICAL COMPOSITION” (priority 2022, published 2025).
Where a name gives a salt, the structure may show the parent alone.

Columns and labels:
[1] = system: mexB (PA) strain; assay: Combinational effect with antibacterial agent against Pseudomonas aeruginosa (Test Examples 2 and 4): mexB (PA) strain with LVFX, TC or AZT at 1/4 MIC, EC99; assay type: cell-based; conditions: for EC99, combinational effect with AZT, mexB (PA) / EC99, combinational effect with LVFX, mexB (PA) / EC99, combinational effect with TC, mexB (PA): mexB (PA) strain, Test Example 4; for EC99, combinational effect with AZT, mexB (PA) / EC99, mexB (PA), AZT: combined with AZT at 1/4 MIC; for EC99, combinational effect with LVFX, mexB (PA) / EC99, mexB (PA), LVFX: combined with LVFX at 1/4 MIC; for EC99, combinational effect with TC, mexB (PA) / EC99, mexB (PA), TC: combined with TC at 1/4 MIC; for EC99, mexB (PA), AZT / EC99, mexB (PA), LVFX / EC99, mexB (PA), TC: Table 52, Test Example 2, 16 to 20 hours culture, OD595
Outline: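 EC99 denotes the minimum test-compound concentration (range 0–800 μM) that suppresses ≥99% of growth, measured by OD595, when combined with ¼ MIC levofloxacin (LVFX), tetracycline or aztreonam. The efflux-pump mutant mexB (PA), expressing mainly MexAB-OprM, was inoculated at 10^4–5 CFU/well in CAMHB for 16–20 h.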

[2] = system: S-3769 strain; assay: Combinational effect with antibacterial agent against Pseudomonas aeruginosa (Test Examples 2 and 4): S-3769 strain with AMK or GM at 1/4 MIC, EC99; assay type: cell-based; conditions: for EC99, combinational effect with AMK, S-3769 strain / EC99, S-3769 strain, AMK: combined with AMK at 1/4 MIC; for EC99, combinational effect with AMK, S-3769 strain / EC99, combinational effect with GM, S-3769 strain: Test Example 4; for EC99, combinational effect with GM, S-3769 strain / EC99, S-3769 strain, GM: combined with GM at 1/4 MIC; for EC99, S-3769 strain, AMK / EC99, S-3769 strain, GM: Table 52, Test Example 2, 16 to 20 hours culture, OD595
Outline: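 EC99, the lowest test-compound concentration inhibiting growth by ≥99% (OD595), was measured with aminoglycoside AMK or GM held at ¼ MIC. Strain S-3769, a MexY-overexpressing clinical isolate, was cultured in CAMHB at 10^4 to 5 CFU/well for 16–20 h; compound range 0–800 μM.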

CCOc1cccc(F)c1CN1CCN(C(=O)[C@H](N)C2CCN(CCc3cc(Cl)ccc3-c3cccc4ccccc34)CC2)CC1 [Example 548, Hydrobromide of (R)-2-amino-2-(1-(5-chloro-2-(naphthalen-1-yl)phenethyl)piperidin-4-yl)-1-(4-(2-ethoxy-6-fluorobenzyl)piperazin-1-yl)ethan-1-one]
EC99, combinational effect with AZT, mexB (PA) [1]: A (12.5 μM<EC99≤25 μM) | EC99, combinational effect with LVFX, mexB (PA) [1]: S (EC99≤12.5 μM) | EC99, combinational effect with TC, mexB (PA) [1]: A (12.5 μM<EC99≤25 μM) | EC99, combinational effect with AMK, S-3769 strain [2]: S (EC99≤12.5 μM) | EC99, combinational effect with GM, S-3769 strain [2]: A (12.5 μM<EC99≤25 μM)

N[C@@H](C(=O)N1CCN(Cc2c(F)cccc2-c2c[nH]cn2)CC1)C1CCN(CCc2cc(Cl)ccc2-c2ccccc2)CC1 [Example 528, Hydrobromide of (R)-2-amino-2-(1-(2-(4-chloro-[1,1-biphenyl]-2-yl)ethyl)piperidin-4-yl)-1-(4-(2-fluoro-6-(1H-imidazol-4-yl)benzyl)piperazin-1-yl)ethan-1-one]
EC99, combinational effect with AZT, mexB (PA) [1]: B (25 μM<EC99≤100 μM) | EC99, combinational effect with LVFX, mexB (PA) [1]: A (12.5 μM<EC99≤25 μM) | EC99, combinational effect with TC, mexB (PA) [1]: A (12.5 μM<EC99≤25 μM) | EC99, combinational effect with AMK, S-3769 strain [2]: A (12.5 μM<EC99≤25 μM) | EC99, combinational effect with GM, S-3769 strain [2]: S (EC99≤12.5 μM)

CSc1ccccc1CN1CCN(C(=O)[C@H](N)C2CCN(CCc3cc(Cl)ccc3-c3cccc(N)c3)CC2)CC1 [Example 600, Hydrochloride of (R)-2-amino-2-(1-(2-(3′-amino-4-chloro-[1,1-biphenyl]-2-yl)ethyl)piperidin-4-yl)-1-(4-(2-(methylthio)benzyl)piperazin-1-yl)ethan-1-one]
EC99, combinational effect with AZT, mexB (PA) [1]: S (EC99≤12.5 μM) | EC99, combinational effect with LVFX, mexB (PA) [1]: S (EC99≤12.5 μM) | EC99, combinational effect with TC, mexB (PA) [1]: S (EC99≤12.5 μM) | EC99, combinational effect with AMK, S-3769 strain [2]: A (12.5 μM<EC99≤25 μM) | EC99, combinational effect with GM, S-3769 strain [2]: A (12.5 μM<EC99≤25 μM)

N[C@@H](C(=O)N1CCN(Cc2ccccc2OCC(F)(F)F)CC1)C1CCN(CCc2cc(Cl)ccc2-c2ccccc2)CC1 [Example 2, Hydrobromide of (R)-2-amino-2-(1-(2-(4-chloro-[1,1′-biphenyl]-2-yl)ethyl)piperidin-4-yl)-1-(4-(2-(2,2,2-trifluoroethoxy)benzyl)piperazin-1-yl) ethan-1-one]
EC99, mexB (PA), AZT [1]: B (25 μM<EC99≤100 μM) | EC99, mexB (PA), LVFX [1]: C (100 μM<EC99) | EC99, mexB (PA), TC [1]: B (25 μM<EC99≤100 μM) | EC99, S-3769 strain, AMK [2]: S (EC99≤12.5 μM) | EC99, S-3769 strain, GM [2]: S (EC99≤12.5 μM)

CCOc1cccc(F)c1CN1CCN(C(=O)[C@H](N)C2CCN(CCC3COc4ccccc4C3)CC2)CC1 (stereo partly drawn) [Example 153, Hydrobromide of (2R)-2-amino-2-(1-(2-(chroman-3-yl)ethyl)piperidin-4-yl)-1-(4-(2-ethoxy-6-fluorobenzyl)piperazin-1-yl)ethan-1-one]
EC99, mexB (PA), AZT [1]: C (100 μM<EC99) | EC99, mexB (PA), LVFX [1]: C (100 μM<EC99) | EC99, mexB (PA), TC [1]: C (100 μM<EC99) | EC99, S-3769 strain, AMK [2]: S (EC99≤12.5 μM) | EC99, S-3769 strain, GM [2]: S (EC99≤12.5 μM)

CCOc1cccc(F)c1CN1CCN(C(=O)[C@H](N)C2CCN(CCc3cc(Cl)ccc3-c3cc(O)ccc3Cl)CC2)CC1 [Example 586, Hydrochloride of (R)-2-amino-2-(1-(2-(2′,4-dichloro-5′-hydroxy-[1,1-biphenyl]-2-yl)ethyl)piperidin-4-yl)-1-(4-(2-ethoxy-6-fluorobenzyl)piperazin-1-yl)ethan-1-one]
EC99, combinational effect with AZT, mexB (PA) [1]: S (EC99≤12.5 μM) | EC99, combinational effect with LVFX, mexB (PA) [1]: S (EC99≤12.5 μM) | EC99, combinational effect with TC, mexB (PA) [1]: S (EC99≤12.5 μM) | EC99, combinational effect with AMK, S-3769 strain [2]: A (12.5 μM<EC99≤25 μM) | EC99, combinational effect with GM, S-3769 strain [2]: S (EC99≤12.5 μM)

CCOc1cccc(F)c1CN1CCN(C(=O)[C@H](N)C2CCN(CCc3ccccc3-c3ccccc3)CC2)CC1 [Example 109, hydrochloride of (R)-2-(1-(2-([1,1′-biphenyl]-2-yl)ethyl)piperidin-4-yl)-2-amino-1-(4-(2-ethoxy-6-fluorobenzyl)piperazin-1-yl)ethan-1-one]
EC99, mexB (PA), AZT [1]: B (25 μM<EC99≤100 μM) | EC99, mexB (PA), LVFX [1]: C (100 μM<EC99) | EC99, mexB (PA), TC [1]: B (25 μM<EC99≤100 μM) | EC99, S-3769 strain, AMK [2]: 4 µM | EC99, S-3769 strain, GM [2]: A (12.5 μM<EC99≤25 μM)

CSc1sccc1CN1CCN(C(=O)[C@H](N)C2CCN(CCc3cc(Cl)ccc3-c3ccccc3)CC2)CC1 [Example 531, Hydrobromide of (R)-2-amino-2-(1-(2-(4-chloro-[1,1-biphenyl]-2-yl)ethyl)piperidin-4-yl)-1-(4-((2-(methylthio)thiophen-2-yl)methyl)piperazin-1-yl)ethan-1-one]
EC99, combinational effect with AZT, mexB (PA) [1]: B (25 μM<EC99≤100 μM) | EC99, combinational effect with LVFX, mexB (PA) [1]: S (EC99≤12.5 μM) | EC99, combinational effect with TC, mexB (PA) [1]: A (12.5 μM<EC99≤25 μM) | EC99, combinational effect with AMK, S-3769 strain [2]: A (12.5 μM<EC99≤25 μM) | EC99, combinational effect with GM, S-3769 strain [2]: A (12.5 μM<EC99≤25 μM)

CCSc1cc(F)ccc1CN1CCN(C(=O)[C@H](N)C2CCN(CCc3cc(Cl)ccc3C3=CCNCC3)CC2)CC1 [Example 597, hydrochloride of (R)-2-amino-2-(1-(5-chloro-2-(1,2,3,6-tetrahydropyridin-4-yl)phenethyl)piperidin-4-yl)-1-(4-(2-(ethylthio)-4-fluorobenzyl)piperazin-1-yl)ethan-1-one]
EC99, combinational effect with AZT, mexB (PA) [1]: B (25 μM<EC99≤100 μM) | EC99, combinational effect with LVFX, mexB (PA) [1]: S (EC99≤12.5 μM) | EC99, combinational effect with TC, mexB (PA) [1]: S (EC99≤12.5 μM) | EC99, combinational effect with AMK, S-3769 strain [2]: S (EC99≤12.5 μM) | EC99, combinational effect with GM, S-3769 strain [2]: S (EC99≤12.5 μM)

CCSc1cc(F)ccc1CN1CCN(C(=O)[C@H](N)C2CCN(CCc3cc(Cl)ccc3-c3cc(N)cc(F)c3)CC2)CC1 [Example 606, Hydrochloride of (R)-2-amino-2-(1-(2-(3′-amino-4-chloro-5′-fluoro-[1,1-biphenyl]-2-yl)ethyl)piperidin-4-yl)-1-(4-(2-(ethylthio)-4-fluorobenzyl)piperazin-1-yl)ethan-1-one]
EC99, combinational effect with AZT, mexB (PA) [1]: S (EC99≤12.5 μM) | EC99, combinational effect with LVFX, mexB (PA) [1]: S (EC99≤12.5 μM) | EC99, combinational effect with TC, mexB (PA) [1]: S (EC99≤12.5 μM) | EC99, combinational effect with AMK, S-3769 strain [2]: B (25 μM<EC99≤100 μM) | EC99, combinational effect with GM, S-3769 strain [2]: B (25 μM<EC99≤100 μM)

CCOc1cccc(F)c1CN1CCN(C(=O)[C@H](N)C2CCN(CCc3cc(Cl)ccc3-c3cc(O)cc(F)c3)CC2)CC1 [Example 583, Hydrochloride of (R)-2-amino-2-(1-(2-(4-chloro-3′-fluoro-5′-hydroxy-[1,1-biphenyl]-2-yl)ethyl)piperidin-4-yl)-1-(4-(2-ethoxy-6-fluorobenzyl)piperazin-1-yl)ethan-1-one]
EC99, combinational effect with AZT, mexB (PA) [1]: A (12.5 μM<EC99≤25 μM) | EC99, combinational effect with LVFX, mexB (PA) [1]: S (EC99≤12.5 μM) | EC99, combinational effect with TC, mexB (PA) [1]: A (12.5 μM<EC99≤25 μM) | EC99, combinational effect with AMK, S-3769 strain [2]: S (EC99≤12.5 μM) | EC99, combinational effect with GM, S-3769 strain [2]: S (EC99≤12.5 μM)

CCOc1cccc(F)c1CN1CCN(C(=O)[C@H](N)C2CCN(CCc3cscc3-c3ccccc3)CC2)CC1 [Example 540, Hydrobromide of (R)-2-amino-1-(4-(2-ethoxy-6-fluorobenzyl)piperazin-1-yl)-2-(1-(2-(4-phenylthiophen-3-yl)ethyl)piperidin-4-yl)ethan-1-one]
EC99, combinational effect with AZT, mexB (PA) [1]: C (100 μM<EC99) | EC99, combinational effect with LVFX, mexB (PA) [1]: B (25 μM<EC99≤100 μM) | EC99, combinational effect with TC, mexB (PA) [1]: B (25 μM<EC99≤100 μM) | EC99, combinational effect with AMK, S-3769 strain [2]: A (12.5 μM<EC99≤25 μM) | EC99, combinational effect with GM, S-3769 strain [2]: A (12.5 μM<EC99≤25 μM)

CCOc1cccc(F)c1CN1CCN(C(=O)[C@H](N)C2CCC(N(C)Cc3ccccc3)CC2)CC1 (stereo partly drawn) [Example 570, Hydrobromide of (R)-2-amino-2-(4-(benzyl(methyl)amino)cyclohexyl)-1-(4-(2-ethoxy-6-fluorobenzyl)piperazin-1-yl)ethan-1-one]
EC99, combinational effect with AZT, mexB (PA) [1]: C (100 μM<EC99) | EC99, combinational effect with LVFX, mexB (PA) [1]: C (100 μM<EC99) | EC99, combinational effect with TC, mexB (PA) [1]: C (100 μM<EC99) | EC99, combinational effect with AMK, S-3769 strain [2]: B (25 μM<EC99≤100 μM) | EC99, combinational effect with GM, S-3769 strain [2]: B (25 μM<EC99≤100 μM)
